Common to all, as to assay: growth of human tumour cells (NCI), 48 h
Assay [1] has as its system UACC-257.
The test system of assay [2] is SF-268.
The test system of assay [3] is HCT-15.
For assay [4], the system named is HOP-92.
For assay [5], the system named is NCI-H460.
Assay [6] relates to HT-29.
In assay [7] the test system is OVCAR-3.
In assay [8] the test system is U-251.
The subject of assay [9] is DU-145.
The test system of assay [10] is HOP-62.
In assay [11] the test system is HCC 2998.
For assay [12], the system named is K562.
The subject of assay [13] is COLO 205.
In assay [14] the test system is SN12C.
In assay [15] the test system is HCT-116.
The test system of assay [16] is M14.
For assay [17], the system named is A498.
Assay [18] deals with CAKI-1.
Assay [19] deals with SK-MEL-5.
Assay [20] deals with KM12.

The structures appear in SMILES notation.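 These data come from cells grown in 96-well plates and exposed to compound for 48 hours at five concentrations. GI50 marks 50% less growth.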 Activity calls are given as the source filed them. Cut-off read from the data, not from the text of the source: active = GI50 up to about 1.1 µM and inactive = higher.

Turning to `COc1ccc2[nH]c3cc4c(=O)c5cc(OC)ccc5[nH]c4cc3c(=O)c2c1`, the GI50 in [1] is > 100 µM (inactive); in assay [2] it was > 100 µM (inactive); in [3], more than 100 µM; in [4] it was > 100 µM (inactive); in assay [5], > 100 µM (inactive); in [6] it was > 100 µM (inactive). Moreover, the GI50 in assay [7] was > 100 µM (inactive); in [8], > 100 µM (inactive); in assay [9], > 100 µM (inactive); in assay [10] it was 69.5 µM (inactive); in [11], > 100 µM (inactive); in assay [12], > 100 µM (inactive). Also, the GI50 in assay [13], in [14], in [15], in assay [16], in assay [17] and in assay [18] was > 100 µM (inactive) each time. The GI50 in assay [19] and in assay [20] was > 100 µM (inactive) each time.
Take `C1C2CC3CC1CC(c1nn4c(C56CC7CC(CC(C7)C5)C6)nnc4s1)(C2)C3`: the GI50 in assay [2] is > 100 µM (inactive); in assay [3], more than 100 µM; in assay [4] it was > 100 µM (inactive); in assay [5] it was > 100 µM (inactive); in assay [6], > 100 µM (inactive); in assay [7] it was > 100 µM (inactive). The GI50 in assay [8], in [9], in [10], in assay [11], in [12] and in assay [13] was > 100 µM (inactive) each time. Also, the GI50 in assay [14], in [15], in assay [16], in [17], in [18] and in assay [19] was > 100 µM (inactive) in each case. In addition, the GI50 in assay [20] was > 100 µM (inactive).
Regarding `CCOC(=O)c1c(SC(=O)c2ccc(OC)cc2)n(-c2ccccc2)c(=S)n(-c2ccccc2)c1=O`, the GI50 in assay [1] is > 100 µM (inactive); in assay [2], 18.6 µM (inactive); in [3] it was 23.4 µM; in assay [4], > 100 µM (inactive); in assay [5], 84.7 µM (inactive); in assay [6] it was 46.1 µM (inactive). Also, the GI50 in assay [7] was 50 µM (inactive); in assay [8] it was 33.6 µM (inactive); in assay [9] it was > 100 µM (inactive); in assay [10], > 100 µM (inactive); in [11], > 100 µM (inactive); in [12] it was 42.5 µM (inactive). In addition, the GI50 in assay [13] is 89.1 µM (inactive); in [14], 76.9 µM (inactive); in [15] it was 23.3 µM (inactive); in assay [16], 29.7 µM (inactive); in assay [17], 27.3 µM (inactive); in [18], > 100 µM (inactive). Also, the GI50 in assay [20] is > 100 µM (inactive).
In the case of `CN[C@@H](Cc1cccc2ccccc12)C(=O)N[C@@H](CC(C)C)B(O)O`, the GI50 in assay [2] was < 0.01 µM (active); in assay [3], less than 0.01 µM; in assay [4], < 0.01 µM (active); in [5], < 0.0113 µM (active); in assay [6], < 0.01 µM (active); in [7], < 0.01 µM (active). Further, the GI50 was < 0.0126 µM (active) in assay [8]; < 0.0109 µM (active) in assay [9]; < 0.011 µM (active) in [10]; < 0.01 µM (active) in assay [11]; < 0.01 µM (active) in assay [12]; < 0.01 µM (active) in assay [13]. The GI50 in [14], in [15], in assay [16], in assay [17], in assay [18] and in assay [19] was < 0.01 µM (active) throughout. Moreover, the GI50 in [20] is < 0.01 µM (active).
As for `CCN1C(Cl)=NS(=O)(=O)c2ccccc21`, the GI50 in assay [1] is 28 µM (inactive); in assay [2], 36.6 µM (inactive); in [3], 9.86 µM; in assay [4], 18.8 µM (inactive); in assay [5], 22.8 µM (inactive); in [6] it was 18.8 µM (inactive). Moreover, the GI50 in assay [7] was 19.3 µM (inactive); in assay [8], 62.1 µM (inactive); in assay [9], 36.7 µM (inactive); in assay [10] it was 25.2 µM (inactive); in assay [11], 20.3 µM (inactive); in assay [12], 7.83 µM (inactive). Besides, the GI50 in assay [13] is 14.9 µM (inactive); in [14] it was 18.6 µM (inactive); in assay [15], 23.8 µM (inactive); in [16] it was 14.9 µM (inactive); in assay [17] it was 22.4 µM (inactive); in assay [18] it was 1.93 µM (inactive). For the same compound, the GI50 in assay [19] is 13.6 µM (inactive); in assay [20], 51.8 µM (inactive).
As to `CCOC(=O)/C(C#N)=C/c1ccc(SCc2ccco2)c([N+](=O)[O-])c1`, the GI50 in assay [1], in [2], in assay [4], in assay [5], in [6] and in [7] was > 100 µM (inactive) throughout. Besides, the GI50 in assay [8], in assay [9], in assay [10], in assay [11], in assay [12] and in assay [13] was > 100 µM (inactive) in each case. The GI50 in assay [14], in [15], in assay [16], in assay [17], in [18] and in [19] was > 100 µM (inactive) in each case. Moreover, the GI50 in assay [20] is > 100 µM (inactive).
In the case of `Cc1ccc(OCC2OC(n3cnc4c(Cl)nc(Cl)nc43)CC2Oc2ccc(C)cc2)cc1` (stereo unspecified), the GI50 is 2.68 µM (inactive) in [1]; 1.96 µM (inactive) in assay [2]; 1.82 µM in assay [3]; 2.28 µM (inactive) in assay [4]; 1.87 µM (inactive) in assay [5]; 1.57 µM (inactive) in assay [6]. Moreover, the GI50 was 2.37 µM (inactive) in assay [7]; 2.13 µM (inactive) in [8]; 1.91 µM (inactive) in assay [9]; 2.56 µM (inactive) in assay [10]; 16.5 µM (inactive) in assay [11]; 1.96 µM (inactive) in assay [13]. The GI50 in assay [14] was 3.85 µM (inactive); in assay [15], 1.91 µM (inactive); in [16], 1.85 µM (inactive); in assay [17], 23.1 µM (inactive); in assay [18] it was 1.57 µM (inactive); in [19], 7.1 µM (inactive). In [20], the GI50 was 1.7 µM (inactive).
On to `CC1(O)CC23CC1CCC2(C)C12CCCC(C)(C(=O)O1)C2CC3O` (stereo unspecified), for which the GI50 in [1] is > 100 µM (inactive); in assay [2], > 100 µM (inactive); in assay [3], more than 100 µM; in assay [4] it was > 100 µM (inactive); in assay [5], > 100 µM (inactive); in [6], > 100 µM (inactive). For the same compound, the GI50 in assay [8], in assay [9], in [11], in [12], in assay [13] and in [14] was > 100 µM (inactive) in each case. Also, the GI50 in assay [15], in [16], in assay [17], in assay [18], in assay [19] and in [20] was > 100 µM (inactive) throughout.
On to `C[N+](C)=C/C=C(\Cl)c1ccc2ccccc2c1`, for which the GI50 is 12.2 µM (inactive) in assay [1]; 22.9 µM (inactive) in assay [2]; 2.62 µM in [3]; 21 µM (inactive) in assay [4]; 23.3 µM (inactive) in [5]; 7.64 µM (inactive) in assay [6]. Besides, the GI50 in [7] was 6.24 µM (inactive); in [8], 11.4 µM (inactive); in [9], 14.9 µM (inactive); in [10], 17.8 µM (inactive); in assay [11], 6.37 µM (inactive); in [12], 5.04 µM (inactive). Further, the GI50 in [13] was 19.2 µM (inactive); in assay [14] it was 19.1 µM (inactive); in [15], 2.76 µM (inactive); in assay [16], 6.62 µM (inactive); in [17], > 63 µM (inactive); in assay [18] it was 11.9 µM (inactive). Besides, the GI50 in assay [19] is 18.1 µM (inactive); in assay [20], 15 µM (inactive).
Regarding `CCc1ccc(NC(=O)NC(=O)c2ccccc2[N+](=O)[O-])cc1Oc1ncc(Cl)cn1`, the GI50 in assay [1] is < 0.01 µM (active); in assay [2] it was 0.0287 µM (active); in assay [3], 0.0141 µM; in [4], < 0.01 µM (active); in assay [5], 0.0158 µM (active); in assay [6] it was 0.0179 µM (active). In addition, the GI50 in [7] is 0.0147 µM (active); in assay [8], 0.0181 µM (active); in [9] it was 0.0578 µM (active); in assay [10], < 0.0154 µM (active); in [11] it was 0.027 µM (active); in [12], < 0.0145 µM (active). Moreover, the GI50 in [13] is 0.0304 µM (active); in [14], 0.0308 µM (active); in assay [15], 0.0331 µM (active); in assay [16], 0.0231 µM (active); in assay [17] it was < 0.01 µM (active); in [18], < 0.01 µM (active). Moreover, the GI50 in assay [19] is < 0.0139 µM (active); in [20] it was < 0.0161 µM (active).
On to `CC#CS(=O)(=O)c1ccccc1`, for which the GI50 is 2.88 µM (inactive) in [1]; 15.9 µM (inactive) in [2]; 2.88 µM in [3]; 2.51 µM (inactive) in [4]; 17.5 µM (inactive) in assay [5]; 3.67 µM (inactive) in [6]. For the same compound, the GI50 in assay [7] is 1.63 µM (inactive); in assay [8], 12.9 µM (inactive); in assay [9], 2.82 µM (inactive); in assay [10], 21.7 µM (inactive); in [11] it was 3.96 µM (inactive); in assay [13], 11.2 µM (inactive). For the same compound, the GI50 in [14] is 6.32 µM (inactive); in assay [15] it was 4.36 µM (inactive); in [16] it was 5.87 µM (inactive); in assay [17] it was 15.4 µM (inactive); in assay [18], 1.04 µM (active); in assay [19] it was 2.81 µM (inactive).

These data come from ChEMBL document CHEMBL1201862, “PubChem BioAssay data set” (2004).
